Where “and” joins values, the source holds several entries; their conditions need not be identical. Equal entries are not always repeated.

The text below walks through data of US4791215A, “Derivatives of glutamic acid and aspartic acid” (priority 1984, dated 1988).

For one series, the system named is morphine analgesia. Put plainly: Increase in analgesia of morphine, Tail Flick Test (Experiment 1). Format: in vivo, rats. The settings on record: for percentage variation of latency of pain sensation / M (10-90) ± SE, mean percentage variation of latency: compound 10 mg/kg i.p. + morphine 2 mg/kg; for M (10-90) ± SE, mean percentage variation of latency: mean 10-90 min; for Power ratio with respect to morphine alone: rat, in vivo. Summed up:
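Non-fasted male rats (150-200 g); a tail point is exposed to a 75 °C heat source and latency to tail movement recorded, 8 s cut-off. Readings taken before and 10, 20, 30, 45, 60 and 90 min after analgesic treatment; percentage variation calculated per animal.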
Background: In hot-plate and tail-flick tests a longer latency is read as antinociception.

For series [1], the system named is CCK-8 induced contraction of guinea pig gall bladder. Put plainly: Anti-CCK activity on gall bladder strips in vitro. The settings on record: CCK-8 10 ng/ml. The method in brief: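 Longitudinal guinea pig gall bladder strips in Krebs at 32 °C, gassed with O2/CO2 95:5, were contracted with 10 ng/ml CCK-8. Isometric force was recorded across several compound concentrations, and ED50 was taken as the μg/ml concentration antagonising 50% of the CCK contraction.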

The test system of series [2] is intestinal transit of carbon. Put plainly: Anti-spastic activity, vegetable carbon intestinal transit test. In kind it is in vivo, mice. The settings on record: Mus musculus, ip; read-out: antispastic activity ED50 (dose reducing intestinal transit of carbon by 50%). The source says:
The anti-spastic activity which the present compounds exert on the entire digestive system is also notable. Measured in mice with the vegetable carbon test (rate of transit through the stomach and the intestine), this activity is illustrated in the following table.
claimed administered intraperitoneally in mice. Values
expressed as the ED 50 in mg/kg, that is the dose which
reduces the intestinal transit of carbon by 50%

Another series deals with biliary flow. Put plainly: Biliary flow (choleretic activity). Format: in vivo, rat. The settings on record: for ED50: Rattus norvegicus, iv, average over 2 hours, read-out: ED50 (dose causing 50% increase in biliary flow). As to the method:
The following experiment was carried out: a cannula was inserted in the bile duct of a rat anaesthetised with urethane, together with a small needle connected to a polythene tube, and the bile liquid was thus collected. The collection was carried out for one hour before the intravenous administration of the tested compounds and for a further two hours after administration, the samples collected at 30 minute intervals being weighed.
In order to prevent possible dehydration of the animals, 0.5 ml of physiological solution was administered at 30 minute intervals up to a total of 3 ml.

The test system of series [3] is CCK-8 induced contraction of guinea pig gall bladder. Put plainly: Anti-CCK-8 activity on gall bladders in situ. In kind it is in vivo. The settings on record: for percentage inhibition of contracting effect of CCK-8: single experiments; for ED50: Cavia porcellus, iv, CCK-8 10 ng/kg i.v., read-out: ED50 (inhibition of 50% of contracting effect of CCK-8). The method, then: In order to confirm the evidence of the studies in vitro several of the more interesting compounds were tested in vivo on guinea pig gall baldders in situ.
The method used is that described by Ljungberg (Svensk. Farm. Tidskr. 68, 351-354, 1964).
Guinea pigs having a weight of about 400 g, anaesthetised with urethane, were used; the substances under examination were administered intraveneously into the jugular vein.
The responses of the gall bladders to the substances under test were detected by means of a force transducer and recorded by means of a microdynamometer. The optimum contracting dose was chosen as 10 ng/kg of CCK-8. The antagonist compounds tested were administered in increasing doses so as to enable the calculation of an ED50 value, that is in the dose (in mg/kg i.v.) capable of inhibiting 50% of the contracting effect of 10 ng/kg i.v. of CCK-8.
The results obtained are given in Table 7 below, which gives the doses used and the effects obtained expressed as a percentage inhibition of the contracting effect of CCK-8 as well as the ED50 found.

Series [4] deals with CCK-8 induced contraction of rabbit colon. Put plainly: Anti-spastic activity in the colon stimulated by CCK-8. Format: in vivo. The method, then: A much more specific anti-spastic activity, that is adhering much more to a physiological situation, is illustrated by the following experiment.
The abdomen of an anaesthetised rabbit was cut open to show the transverse colon. A small balloon full of water was inserted at the point established and connected to a pressure transducer by means of a polythene cannula filled with water.
The optimum sensitivity was fixed in relation to the physiological conditions and the products were administered through the femoral vein. Contractions were induced by the administration of 100 ng/kg of CCK.

The next series concerns normal pancreatic cells. Put plainly: Trophic action of CCK-8 on normal pancreas. In kind it is in vivo, hamsters. The settings on record: CCK-8 10 mcg/kg 3 times per day. The source says:
(§1) The anti-cholecystokinin effect of the most powerful of the compounds which are the subject of the present invention, that is the compound C-7, on the trophic activity of CCK on normal pancreatic cells and on those of a pancreatic adenocarcinoma is to be studied.
(§2) Male hamsters were inoculated in the cheek pouches with a suspension of 1×10^5 tumoral cells of a pancreatic adenocarcinoma. Five days after the inoculation the animals were divided at random into 4 groups of 10 animals each, that is, a control group, a group of animals treated with 10 μg/kg of CCK-8 three times a day, a group of animals treated with 5 mg/kg i.p. of compound C-7 three times a day, and a fourth group treated simultaneously with the compound C-7 and CCK-8 in the manner described above.
(§3) After 15 days of this treatment, the animals were killed, and the normal pancreas and the inoculated pancreatic tumours in the cheek pouches were collected and weighed. The DNA was extracted and measured according to conventional techniques.
(§4) The results thus obtained are given in Table 13, expressed as mean values (±S.E.)

For series [5], the system named is pancreatic adenocarcinoma. Format: in vivo, hamsters.
Description: as §1, §2, §3, §4

The mark [6] stands for this setting: CCK-8 10 mcg/kg 3 times per day.

Take `CCCc1ccc(C(=O)NC(CCC(=O)O)C(=O)N(CCC)CCC)cc1` (stereo not shown) [Compound C-35]: the “percentage variation of latency of pain sensation” value is 39.9 ± 15% in the series on morphine analgesia (10'); 62.3 ± 23% in the series with morphine analgesia (20'); 13.7% in the series on morphine analgesia (30'); 63.2 ± 17% with morphine analgesia (45'); 61.3 ± 20% with morphine analgesia (60'); 28.8 ± 31% in the series on morphine analgesia (90'). Further, the “M (10-90) ± SE, mean percentage variation of latency” value in the series with morphine analgesia is 44.9 ± 21%. Also, the “Power ratio with respect to morphine alone” value (shortened to “Power ratio”) with morphine analgesia worked out at 1.51. In series [1], the “ED50 (concentration antagonising 50% of contracting effect of CCK-8)” value was determined as 367.1 µg/mL. Moreover, the ED50 (commonly the dose at which the effect has come halfway, by size or by number of responders) stood at 181 mg/kg in series [2] and 29.5 mg/kg in the series with biliary flow. Also, the “% increase in biliary flow with respect to controls” value is on record as “+9.6%” with biliary flow (12.5 mg/kg i.v.), “+51.9%” in the series on biliary flow (25 mg/kg i.v.), “+91.9%” in the series with biliary flow (50 mg/kg i.v.) and “+159.7%” in the series with biliary flow (100 mg/kg i.v.).

With `CCCCCN(CCCCC)C(=O)C(CCC(=O)O)NC(=O)c1ccc(Cl)cc1` (stereo not shown) [Compound C-4], the “percentage variation of latency of pain sensation” value with morphine analgesia (10') is reported as 44.6 ± 5.3%; in the series on morphine analgesia (20') it was 67.5 ± 13.4%; in the series with morphine analgesia (30'), 66.3 ± 14.0%; in the series with morphine analgesia (45'), 60.4 ± 16.3%; in the series on morphine analgesia (60') it was 59.8 ± 17.0%; in the series with morphine analgesia (90'), 44.2 ± 14.8%. Further, the “M (10-90) ± SE, mean percentage variation of latency” value in the series on morphine analgesia is 57.1%. The “Power ratio” value in the series with morphine analgesia is given as 1.92. Moreover, the “ED50 (concentration antagonising 50% of contracting effect of CCK-8)” value in series [1] is 1.1 µg/mL. Further, the “percentage inhibition of contracting effect of CCK-8” value in series [3] (0.03 mg/kg i.v.) is -11.8%; in series [3] (1 mg/kg i.v.), -92.1% and -88.5%. Besides, the ED50 in series [3] was 0.3 mg/kg; in series [2], 38.8 mg/kg.

Consider `CCCCN(CCCC)C(=O)C(CCC(=O)O)NC(=O)c1ccc(Cl)c(Cl)c1` (racemic) [Compound C-6, D,L-4-(3,4-dichloro-benzoyl-amino)-5-(di-n-butylamino)-5-oxo-pentanoic acid], for which the “percentage variation of latency of pain sensation” value stood at 89.2% with morphine analgesia (10'); 91.3 ± 8.7% in the series on morphine analgesia (20'); 83.6 ± 10.0% with morphine analgesia (30'); 82.1 ± 16.6% in the series on morphine analgesia (45'); 79.8 ± 17.0% in the series on morphine analgesia (60'); 38.2% in the series with morphine analgesia (90'). In addition, the “M (10-90) ± SE, mean percentage variation of latency” value with morphine analgesia is reported as 77.4 ± 19.6%. Moreover, in the series with morphine analgesia, the “Power ratio” value is listed as 2.59. In addition, the “ED50 (concentration antagonising 50% of contracting effect of CCK-8)” value in series [1] was found to be 0.33 µg/mL. Moreover, the “percentage inhibition of contracting effect of CCK-8” value in series [3] (0.01 mg/kg i.v.) was -12.9%; in series [3] (0.03 mg/kg i.v.), -49.7% and -40.0%; in series [3] (1 mg/kg i.v.), -100.0%. Further, the “block of gall bladder contractions induced by CCK-8” value in series [3] (0.1 mg/kg) is on record as “can block gall bladder contractions induced by CCK-8”. In addition, the ED50 in series [3] turned out to be 0.05 mg/kg; in series [2] it was 29.5 mg/kg; in series [4] (Oryctolagus cuniculus, iv, CCK 100 ng/kg), 1.53 mg/kg; in the series on biliary flow it was 4.2 mg/kg. Besides, the “effect on CCK-8 stimulated colon” value in series [4] (0.1 mg/kg iv, single experiments) is listed as 0. Also, the “% increase in biliary flow with respect to controls” value is “+40.4%” with biliary flow (3 mg/kg i.v.), “+69.8%” in the series on biliary flow (10 mg/kg i.v.) and “+88.7%” in the series with biliary flow (30 mg/kg i.v.).

Turning to “CCK-8: the biologically active component of the cholecystokinin hormone [reference compound]”, in the series on normal pancreatic cells, the Pancreas weight amounted to 600 ± 54.1 mg and the “Pancreatic DNA” value worked out at 1.5 ± 0.11 mg. For the same compound, in series [5] (setting [6]), the “TUMORAL DNA” value is 0.7 ± 0.13 mg and the “Weight of Pancreatic Carcinoma” value is listed as 180 ± 15.2 mg. Moreover, the “animals died during the treatment” value in series [5] (CCK-8 10 mcg/kg 3 times per day, of 10) was 2 animals. The “effect on growth of pancreatic adenocarcinoma / CCK-8 actions” value in series [5] (hamster, in vivo) is “stimulates the growth of a pancreatic adenocarcinoma”.
